Results as given in US5866570A, “Treatment of vascular leakage and related syndrome such as septic shock by administration of metalloproteinase inhibitors” (Wisconsin Alumni Research Foundation, priority 1994, dated 1999).

What was measured:
[1] = target: T1, E. coli recombinant human 72 kD collagenase type IV (MMP-2), pAPMA activated (Homo sapiens, UniProt P08253); experiment: gelatinase assay (3H-gelatin degradation), Example 9; assay type: biochemical; conditions: 100 ng activated enzyme, 4 hrs preincubation with inhibitor at 37° C., 3H-gelatin substrate; read-out: IC50, inhibition of collagenase type IV gelatinase activity
T1 construct: made in house; host or cells: E. coli
T1 sequence (P08253 110-660): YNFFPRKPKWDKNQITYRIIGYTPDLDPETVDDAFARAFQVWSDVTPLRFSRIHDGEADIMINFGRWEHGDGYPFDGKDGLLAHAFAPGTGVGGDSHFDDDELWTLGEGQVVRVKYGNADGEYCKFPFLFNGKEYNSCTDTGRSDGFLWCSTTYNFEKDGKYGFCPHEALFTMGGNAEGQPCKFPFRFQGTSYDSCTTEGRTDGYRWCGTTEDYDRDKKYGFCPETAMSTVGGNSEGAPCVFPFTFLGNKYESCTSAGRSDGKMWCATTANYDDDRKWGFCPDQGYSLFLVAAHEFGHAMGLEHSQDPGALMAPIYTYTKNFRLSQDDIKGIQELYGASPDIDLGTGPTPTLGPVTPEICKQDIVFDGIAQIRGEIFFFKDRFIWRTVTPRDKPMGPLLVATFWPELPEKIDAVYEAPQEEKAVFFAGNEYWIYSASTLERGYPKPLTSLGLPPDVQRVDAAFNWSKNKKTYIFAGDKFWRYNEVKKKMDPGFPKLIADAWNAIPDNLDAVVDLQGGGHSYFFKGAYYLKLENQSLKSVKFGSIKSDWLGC
Source text: Type IV collagenases are highly efficient in digesting gelatin. Inhibition of the gelatinase activity of human recombinant collagenase type IV was used as an initial assay for testing the bis(dioxopiperazine)s. The recombinant 72 kD collagenase IV used in the gelatinase assays was made in E. coli from a cDNA insert obtained from Dr. William Stetler-Stevenson (NCI). The protein runs at 72 kD on SDS-PAGE, has gelatinolytic activity in zymogram, is activated by pAPMA, is precipitated by a monoclonal anti-peptide antibody to the pro-region of the 72 kD enzyme, and is inhibited by TIMP-2. Rat tail ^3 H-collagen I (Dupont-NEN) is denatured to become gelatin by heating at 60° C. for 20 min. E. coli recombinant human 72 kD collagenase type IV is activated by incubation with 1 mM pAPMA for 1 hr. at 37° C. 100 ng of activated enzyme is added to each tube containing 50 mM Tris-HCl pH 7.5, 5 mM CaCl2 and 0.005% Brij-35 and pre-incubated with inhibitor or solvent control for 4 hrs. at 37° C. in a total of 25 μl. 10,000 cpm of ^3 H-gelatin substrate in 30 μl is added (final volume of 55 μl per sample) and the reaction mixture is incubated at 37° C. for 2 to 16 hrs. […] Enzyme activity is calculated from the radioactivity in the supernatant and activity of the compounds expressed as percent solvent control.

[2] = test system: HT-1080 cells (human fibrosarcoma); experiment: in vitro invasion assay through matrigel (Transwell); assay type: cell-based
Procedure: (§1) Razoxane, various bis(hydroxylated)(2,6-dioxopiperazine)s, and various hydrophobic analogs were tested in an in vitro assay for inhibition of tumor cell penetration of a reconstituted basement membrane, matrigel, isolated from the Englegbreth-Holm-Swarm (EHS) tumor (disclosed in Kleinman et al., Biochem. (1982), 24, 6188-6193) first described by Albini et al, Cancer Res. (1987) 47, 3234-3245. An 8 μm pore filter coated with matrigel separates a lower compartment containing a chemoattractant and an upper compartment containing the cells and test compound. In particular, the following compounds were tested: razoxane, (1α, 2α, 4α, 5α)-4,4'-(4,5-dihydroxy-1,2-cyclohexanediyl)bis(2,6-piperazinedione); (1α, 2α, 4β, 5β)-4,4'-(4,5-dihydroxy-1,2-cyclohexanediyl)bis(2,6-piperazinedione);(1β, 2α,4α,5α)-4,4'-(4,5-dihydroxy-1,2-cyclohexanediyl)bis(2,6-piperazinedione); (1β, 2α, 4α,5β)-4,4'-(4,5-dihydroxy-1,2-cyclohexanediyl)bis(2,6piperazinedione); (1α, 2β, 4α,5β)-4,4'-(4,5-dihydroxy-1,2cyclohexanediyl)bis(2,6-piperazinedione); N,N'-cyclohexane-1,2-diylbis[N(2-ethoxy-2-oxoethyl)]glycine; N,N'-4-cyclohexene-1,2-diylbis[N-(2-ethoxy-2-oxoethyl)-glycine ester; (3aα, 5β, 6β, 7aα)-4,4'-(hexahydro-2,2-dimethyl1,3-benzodioxole-5,6-diyl)bis(2,6-piperazinedione); (3aα, 5α, 6α, 7aα)-4,4'-(hexahydro-2,2-dimethyl-1,3-benzodioxole-5,6-diyl)bis(2,6- piperazinedione); (3aα, 5α, 6β, 7aα)-4,4'-(hexahydro-2,2-dimethyl-1,3-benzodioxole-5,6-diyl)bis-2,6- piperazinedione; (3aα, 5β, 6α, 7aβ)-4,4'-(hexahydro-2,2dimethyl-1,3-benzodioxole-5,6-diyl)bis(2,6-piperazinedione); and (3aα, 5α, 6β, 7aβ)-4,4'-(hexahydro-2,2-dimethyl-1,3-benzodioxole-5,6-diyl) bis(2,6piperazinedione). Metastatic cells are able to degrade the basement membrane protein barrier and migrate through the pores of the filter whereas non-metastatic cells remain on the upper surface. The cells that pass to the under side of the filter are then counted under a microscope. […] Variations of this assay have been used to correlate this in vitro invasion with metastatic potential in vivo (Albini et al. (Id.); Hendrix et al. Cancer Letters (1987); 38, 127-247; Repesh L. A., Invasion Metastasis (1989) 9, 192-208 to select for more highly invasive cells (Teranova et al., Proc. Nat. Acad. Sci., (1986), 83, 465, 464; Tullberg et al., Invasion Metastasis, (1989), 9, 13-26; Sefer et al., Biotechniques, (1990), 9, 324-331), and to test compounds for inhibition (Nakajima et al., Cancer Res. (1989), 49, 1698-1756).
(§2) This method has been improved to increase the number of assays which may be performed and analyzed per day. In particular, such improvement comprises the use of disposable Transwells (Costar) units described by Repesh et al., Invasion Metastasis, (1989), 9, 192-208, which consist of an 8 μm pore filter attached to an insert that fits in a 24 well culture plate. Matrigel concentration is titrated from zero to complete inhibition of motility of each invasive cell line used in the assay and for each batch of matrigel. The matrigel concentration which yields 50% or greater inhibition of motility in a 6 hr assay (usually from 15 to 50 μg of protein per filter) is chosen for determination of invasion. Motility of cells through the 8 μm filters is not by passive diffusion since the pore size is smaller than the cells, and is determined in the same chamber in the absence of matrigel. Motility is stimulated two-fold by the presence of fibroblast conditioned medium (3T3 cells) as a chemoattractant (data not shown). The cell lines used are HT-1080, a human fibrosarcoma, and MDA-MB-231, a human breast carcinoma (both available from the American Type Tissue Culture). These cell lines express both the 72 kD and the 92 kD collagenase type IV as determined by zymography (data not shown).
(§3) For inhibition studies, 5×10^5 cells are plated in 200 μl of DMEM+0.1% BSA+the inhibitor (or appropriate solvent control) into the upper chamber of the Transwell. […]

[3] = test system: MDA-MB-231 cells (human breast carcinoma); experiment: as above; assay type: cell-based; conditions: preliminary screen
Procedure: as §1, §2, §3

V-79A fibroblasts = conditions: tissue culture; cited from earlier work
metastases = conditions: in vivo; cited from earlier work
B16-F10 melanoma cells = conditions: pretreatment of B16-F10 cells at 2, 20 and 100 μM; cited from earlier work

SMILES: CC1(C)O[C@H]2C[C@@H](N3CC(=O)NC(=O)C3)[C@H](N3CC(=O)NC(=O)C3)C[C@H]2O1 (relative stereo) [Compound 78]
- IC50 [1]: 45 µM
- inhibition at 290 µM ([2]; Homo sapiens, HT-1080, at 290 μM, 6 hour assay, read-out: maximum inhibition of invasion): 25%
- inhibition of invasion ([2]; preliminary screen): inhibit invasion
- effect on cell motility ([2]; preliminary screen, no matrigel): without inhibiting cell motility
- inhibition of invasion [3]: inhibit invasion
- effect on cell motility ([3]; no matrigel): without inhibiting cell motility

SMILES: O=C1CN([C@@H]2C[C@H]2N2CC(=O)NC(=O)C2)CC(=O)N1 (relative stereo) [trans-15]
- cytotoxic activity (V-79A fibroblasts): inactive
- effect on development of metastases (metastases): stimulates

SMILES: O=C1CN2CCN3CC(=O)NC(=O)[C@H]3[C@@H]2C(=O)N1 (relative stereo) [trans-20]
- metastasis to the lungs after pretreatment of the cells (B16-F10 melanoma cells): significantly reduces the metastasis

SMILES: O=C1CN([C@@H]2C[C@@H]2N2CC(=O)NC(=O)C2)CC(=O)N1 [cis-16, cis-4,4'-(cyclopropanediyl) bis(2,6)dioxopiperazine]
- effect on development of metastases (metastases): inhibits

SMILES: O=C1CN2CCN3CC(=O)NC(=O)[C@H]3[C@H]2C(=O)N1 [cis-21]
- metastasis to the lungs after pretreatment of the cells (B16-F10 melanoma cells): ineffective
